In brackets after ≈: the same amount, converted by molar mass.
How the values were obtained:
Type in all cases: functional
Streptococcus pneumoniae = assay: Antibacterial activity against Streptococcus pneumoniae after 24 hrs by disk diffusion method
Pseudomonas aeruginosa = assay: Antibacterial activity against Pseudomonas aeruginosa after 24 hrs by disk diffusion method
Aspergillus flavus = assay: Antifungal activity against Aspergillus flavus after 26 hrs by serial plate dilution method
Aspergillus fumigatus = assay: Antifungal activity against Aspergillus fumigatus after 26 hrs by serial plate dilution method
Escherichia coli = assay: Antibacterial activity against Escherichia coli after 24 hrs by disk diffusion method
Aspergillus niger = assay: Antifungal activity against Aspergillus niger after 26 hrs by serial plate dilution method
Bacillus subtilis = assay: Antibacterial activity against Bacillus subtilis after 24 hrs by disk diffusion method
Candida albicans = assay: Antifungal activity against Candida albicans after 26 hrs by serial plate dilution method

Compound	MIC (Streptococcus pneumoniae) [µg/mL]	MIC (Pseudomonas aeruginosa) [µg/mL]	MIC (Aspergillus flavus) [µg/mL]	MIC (Aspergillus fumigatus) [µg/mL]	MIC (Escherichia coli) [µg/mL]	MIC (Aspergillus niger) [µg/mL]	MIC (Bacillus subtilis) [µg/mL]	MIC (Candida albicans) [µg/mL]
COc1ccc(N2C(=S)NN=C3N(c4ccccc4)C(=O)c4ccccc4N32)cc1	25 (≈ 60.2 µM)	3.12 (≈ 7.51 µM)	25 (≈ 60.2 µM)	12.5 (≈ 30.1 µM)	6.25 (≈ 15 µM)	3.12 (≈ 7.51 µM)	3.12 (≈ 7.51 µM)	6.25 (≈ 15 µM)
O=c1c2ccccc2n2c(-c3ccccc3)nnc2n1-c1ccccc1	50 (≈ 148 µM)	> 50	> 50	> 50	50 (≈ 148 µM)	25 (≈ 73.9 µM)	25 (≈ 73.9 µM)	25 (≈ 73.9 µM)
O=c1c2ccccc2n2c3nc4ccccc4c-3nnc2n1-c1ccc(Cl)cc1	1.56 (≈ 3.92 µM)	3.12 (≈ 7.84 µM)	3.12 (≈ 7.84 µM)	6.25 (≈ 15.7 µM)	3.12 (≈ 7.84 µM)	1.56 (≈ 3.92 µM)	6.25 (≈ 15.7 µM)	3.12 (≈ 7.84 µM)
O=c1c2ccccc2n2c(-c3ccccc3Cl)nnc2n1-c1ccc(Cl)cc1	3.12 (≈ 7.66 µM)	3.12 (≈ 7.66 µM)	6.25 (≈ 15.3 µM)	3.12 (≈ 7.66 µM)	1.56 (≈ 3.83 µM)	1.56 (≈ 3.83 µM)	1.56 (≈ 3.83 µM)	1.56 (≈ 3.83 µM)
Cc1ccccc1-c1nnc2n(-c3ccc(Cl)cc3)c(=O)c3ccccc3n12	25 (≈ 64.6 µM)	25 (≈ 64.6 µM)	3.12 (≈ 8.07 µM)	12.5 (≈ 32.3 µM)	12.5 (≈ 32.3 µM)	12.5 (≈ 32.3 µM)	12.5 (≈ 32.3 µM)	6.25 (≈ 16.2 µM)
COc1ccc(-n2c(=O)c3ccccc3n3c(-c4ccccc4C)nnc23)cc1	25 (≈ 65.4 µM)	3.12 (≈ 8.16 µM)	25 (≈ 65.4 µM)	6.25 (≈ 16.3 µM)	6.25 (≈ 16.3 µM)	6.25 (≈ 16.3 µM)	12.5 (≈ 32.7 µM)	12.5 (≈ 32.7 µM)
OC(Cn1cncn1)(Cn1cncn1)c1ccc(F)cc1F [FLUCONAZOLE]	–	–	3.12 (≈ 10.2 µM)	6.25 (≈ 20.4 µM)	–	1.56 (≈ 5.09 µM)	–	1.56 (≈ 5.09 µM)
Cc1ccc(N2C(=O)c3ccccc3N3C2=NNC(=S)N3c2ccccc2)cc1	> 50	25 (≈ 62.6 µM)	12.5 (≈ 31.3 µM)	12.5 (≈ 31.3 µM)	25 (≈ 62.6 µM)	25 (≈ 62.6 µM)	25 (≈ 62.6 µM)	25 (≈ 62.6 µM)
O=c1c2ccccc2n2c(-c3ccccc3)nnc2n1-c1ccc(Cl)cc1	12.5 (≈ 33.5 µM)	12.5 (≈ 33.5 µM)	12.5 (≈ 33.5 µM)	6.25 (≈ 16.8 µM)	6.25 (≈ 16.8 µM)	25 (≈ 67.1 µM)	6.25 (≈ 16.8 µM)	12.5 (≈ 33.5 µM)
Cc1ccc(-n2c(=O)c3ccccc3n3c(-c4ccccc4)nnc23)cc1	50 (≈ 142 µM)	25 (≈ 70.9 µM)	50 (≈ 142 µM)	25 (≈ 70.9 µM)	25 (≈ 70.9 µM)	50 (≈ 142 µM)	50 (≈ 142 µM)	> 50
O=c1c2ccccc2n2c(-c3ccccc3Cl)nnc2n1-c1ccccc1	25 (≈ 67.1 µM)	6.25 (≈ 16.8 µM)	12.5 (≈ 33.5 µM)	50 (≈ 134 µM)	12.5 (≈ 33.5 µM)	6.25 (≈ 16.8 µM)	50 (≈ 134 µM)	25 (≈ 67.1 µM)
O=C1c2ccccc2N2C(=NNC(=S)N2c2ccccc2)N1c1ccccc1	25 (≈ 64.9 µM)	50 (≈ 130 µM)	> 50	> 50	> 50	25 (≈ 64.9 µM)	> 50	25 (≈ 64.9 µM)
Cc1ccc(N2C(=S)NN=C3N(c4ccccc4)C(=O)c4ccccc4N32)cc1	25 (≈ 62.6 µM)	50 (≈ 125 µM)	12.5 (≈ 31.3 µM)	25 (≈ 62.6 µM)	50 (≈ 125 µM)	25 (≈ 62.6 µM)	50 (≈ 125 µM)	> 50
COc1ccc(-n2c(=O)c3ccccc3n3c(-c4ccccc4Cl)nnc23)cc1	6.25 (≈ 15.5 µM)	1.56 (≈ 3.87 µM)	3.12 (≈ 7.74 µM)	3.12 (≈ 7.74 µM)	3.12 (≈ 7.74 µM)	1.56 (≈ 3.87 µM)	3.12 (≈ 7.74 µM)	6.25 (≈ 15.5 µM)
Cc1ccc(-n2c(=O)c3ccccc3n3c4nc5ccccc5c-4nnc23)cc1	25 (≈ 66.2 µM)	> 50	25 (≈ 66.2 µM)	12.5 (≈ 33.1 µM)	25 (≈ 66.2 µM)	50 (≈ 132 µM)	25 (≈ 66.2 µM)	25 (≈ 66.2 µM)
O=c1c2ccccc2n2c3nc4ccccc4c-3nnc2n1-c1ccccc1	> 50	25 (≈ 68.8 µM)	25 (≈ 68.8 µM)	25 (≈ 68.8 µM)	50 (≈ 138 µM)	> 50	50 (≈ 138 µM)	> 50
COc1ccc(-n2c(=O)c3ccccc3n3c4nc5ccccc5c-4nnc23)cc1	12.5 (≈ 31.8 µM)	12.5 (≈ 31.8 µM)	3.12 (≈ 7.93 µM)	6.25 (≈ 15.9 µM)	12.5 (≈ 31.8 µM)	12.5 (≈ 31.8 µM)	6.25 (≈ 15.9 µM)	6.25 (≈ 15.9 µM)
Cc1ccccc1-c1nnc2n(-c3ccccc3)c(=O)c3ccccc3n12	> 50	50 (≈ 142 µM)	25 (≈ 70.9 µM)	25 (≈ 70.9 µM)	25 (≈ 70.9 µM)	> 50	> 50	50 (≈ 142 µM)
Cc1ccc(-n2c(=O)c3ccccc3n3c(-c4ccccc4Cl)nnc23)cc1	12.5 (≈ 32.3 µM)	6.25 (≈ 16.2 µM)	50 (≈ 129 µM)	25 (≈ 64.6 µM)	12.5 (≈ 32.3 µM)	6.25 (≈ 16.2 µM)	25 (≈ 64.6 µM)	12.5 (≈ 32.3 µM)
Cc1ccc(-n2c(=O)c3ccccc3n3c(-c4ccccc4C)nnc23)cc1	25 (≈ 68.2 µM)	> 50	50 (≈ 136 µM)	12.5 (≈ 34.1 µM)	25 (≈ 68.2 µM)	12.5 (≈ 34.1 µM)	> 50	25 (≈ 68.2 µM)
Cc1ccc(N2C(=O)c3ccccc3N3C2=NNC(=S)N3c2ccc(C)cc2)cc1	50 (≈ 121 µM)	50 (≈ 121 µM)	12.5 (≈ 30.2 µM)	50 (≈ 121 µM)	25 (≈ 60.5 µM)	25 (≈ 60.5 µM)	25 (≈ 60.5 µM)	25 (≈ 60.5 µM)
COc1ccc(-n2c(=O)c3ccccc3n3c(-c4ccccc4)nnc23)cc1	6.25 (≈ 17 µM)	6.25 (≈ 17 µM)	25 (≈ 67.9 µM)	12.5 (≈ 33.9 µM)	12.5 (≈ 33.9 µM)	3.12 (≈ 8.47 µM)	12.5 (≈ 33.9 µM)	6.25 (≈ 17 µM)
O=C(O)c1cn(C2CC2)c2cc(N3CCNCC3)c(F)cc2c1=O [CIPROFLOXACIN]	6.25 (≈ 18.9 µM)	3.12 (≈ 9.42 µM)	–	–	–	–	1.56 (≈ 4.71 µM)	–

— ChEMBL document CHEMBL1138551, “Antimicrobial studies of some novel quinazolinones fused with [1,2,4]-triazole, [1,2,4]-triazine and [1,2,4,5]-tetrazine rings” (2009)
